Measurements from paper PMC7385036, “An allosteric pocket for inhibition of bacterial Enzyme I identified by NMR-based fragment screening” (Journal of Structural Biology: X, 2020).
Like-named read-outs stand apart in the source and are kept apart here.

Key:
full-length EI [1] = biological target: T1, full-length EI (Escherichia coli, UniProt P08839); assay: Enzyme kinetic assay of phosphoryl transfer from PEP to HPr by 1H-15N SOFAST NMR; assay type: biochemical, E. coli; set-up: phosphoryl transfer from PEP to HPr catalyzed by full-length EI; made in house; details: 0.0, 1.5 and 6.0 mM compound, 25 °C, pH 7.4
Description: In such graphs, the y and x intercepts are equivalent to the inverse of the maximum velocity (1/Vmax) and the negative inverse of the Michaelis constant (−1/Km), respectively.
Vmax,0 (the value of Vmax in the absence of inhibitor) was optimized to maximize the agreement between experimental and simulated data (Fig. 3c).
Enzyme kinetic assay we run by measuring the rate of phosphoryl transfer from PEP to HPr catalyzed by full-length EI by using ^1H-^15N SOFAST NMR spectra as described previously ([Nguyen et al., 2018]). Reaction were run at 25 °C in 20 mM Tris (pH 7.4), 100 mM NaCl, 4 mM MgCl2, 2 mM DTT, and 5% D2O. The assay was performed in triplicate. The enzyme kinetic data measured at different concentration of inhibitor were fit using a completive or mixed inhibition model:(3) Competitiveinhibition-v0=Vmax,0PEP/Km,01+I/KI,S+PEP (4) Mixedinhibition-v0=Vmax,0PEP/Km,01+I/KI,S+PEP1+I/KI,I where v0 is the initial velocity of the enzymatic reaction, [PEP] and [I] are the concentration of substrate and inhibitor, respectively, KI,s is the equilibrium dissociation constant for the enzyme-inhibitor complex, KI,I is the dissociation constant for the interaction between the inhibitor and the enzyme-PEP complex, and Km,0 and Vmax,0 are the Michaelis constant and maximum velocity in the absence of inhibitors, respectively. The seven measured datasets (in the absence of inhibitor, and in the presence of two concentrations of each inhibitor) were fit globally.

EIC domain of EI = biological target: T2, EIC domain of EI (Escherichia coli, UniProt P08839); assay: CSP-based NMR titration experiments (equilibrium dissociation constant); assay type: binding, E. coli
T2 construct: made in house
Description: The affinity of the newly discovered EI ligands was investigated by acquiring CSP-based, NMR titration experiments on ^15N-labeled EIN or EIC at increasing concentration of small molecule ([Fielding, 2007]). The data were fit using a standard equilibrium dissociation equation ([Granot, 1983]) to obtain the equilibrium dissociation constant (KD) per each analyzed complex (Fig. 2d). This analysis identified six small molecules that bind the EIC domain of EI with low mM affinity (Fig. 2e).
NMR titration experiments were measured at 37 °C in 20 mM Tris (pH 7.4), 100 mM NaCl, 4 mM MgCl2, 2 mM DTT, and 5% D2O. The protein concentration was 400 µM and the concentration of small molecule was varied between 0 and 8 mM. Spectra were processed using NMRPipe ([Delaglio et al., 1995]) and analyzed using the program SPARKY (http://www.cgl.ucsf.edu/home/sparky). Assignment of the ^1H-^15N cross-peaks for the EIC-small molecule complexes was performed by titration experiments, following the change in ^1H-^15N cross-peak positions as a function of added small molecule. Weighted combined ^1H/^15N chemical shift perturbations (ΔH/N) resulting from the addition of increasing concentrations of small molecule were calculated using the following equation ([Mulder et al., 1999]):(1) ΔH/N=ΔδHWH^2+ΔδNWN^2 where WH (=1) and WN (=0.154) are weighting factor for the ^1H and ^15N amide shifts, respectively. ΔδH and ΔδN are the ^1H and ^15N chemical shift differences in ppm, respectively, between free and bound states. The equilibrium dissociation constants (KD) for the EIC-inhibitor complexes were obtained by fitting the changes in ΔH/N with increasing concentration of small molecule using the equation ([Granot, 1983]):(2) ΔH/N=Δ0P+L+KD-P+L-KD^2-4PL/2P where Δ0 is the weighted combined ^1H/^15N chemical shift at saturation, and P and L are the protein and small molecule concentrations, respectively.

full-length EI [2] = biological target: T1, full-length EI; details: read-out: Km,0 (Km in the absence of inhibitor); PEP as substrate of EI; kept fixed to its literature value, no reference given; cited from earlier work
[3] = 15N-labeled EIC 400 µM, small molecule 0-8 mM, 37 °C, pH 7.4, read-out: KD

SMILES | Type of inhibition of EI (Lineweaver-Burk analysis) (full-length EI [1]) | Kd (EIC domain of EI; [3]) [mM] | also measured
NCc1ccc(-c2ccc(F)cc2)o1 [compound 1] | competitive inhibitors | 2.5 | –
CC(CN)Nc1ccc([N+](=O)[O-])cc1 (stereo not drawn) [compound 6] | – | 4.1 | –
NCc1ccc(Br)s1 [compound 4] | – | 2.9 | –
Cc1nn(Cc2ccc(F)cc2)c(C)c1N [compound 3] | mixed inhibitor | 3.2 | Kd (EIC domain of EI; EIC, residues in the allosteric binding pocket fitted separately, read-out: KD, CSP titration data fitted for the residues in the allosteric binding pocket): 3.2 ± 0.2 mM; Kd (EIC domain of EI; EIC, residues in the β3α3 loop fitted separately, read-out: KD, CSP titration data fitted for the residues in the β3α3 loop): 3.5 ± 0.3 mM
CC(C)Oc1ccc(Cl)cc1CN [compound 5] | – | 4.3 | –
CNCc1[nH]c2ccccc2c1C [compound 2] | competitive inhibitors | 2.6 | –
C=C(OP(=O)(O)O)C(=O)O [PEP, phosphoenolpyruvate] | – | – | Km (full-length EI [2]): 350 µM
